# From ChEMBL document CHEMBL3407347, “Discovery of new acylaminopyridines as GSK-3 inhibitors by a structure guided in-depth exploration of chemical space around a pyrrolopyridinone core” (Bioorg Med Chem Lett, 2015)
# pIC50: −log10 of the molar value. Active and inactive are the calls of the source. The calls are words filed in the database; no cut-off is given here.
# Target: Glycogen synthase kinase-3 beta (Homo sapiens, UniProt P49841)
# Assay: Inhibition of GSK3beta (unknown origin) activity by competitive binding assay
# Conditions: not given
# Sequence of Glycogen synthase kinase-3 beta (P49841 whole entry): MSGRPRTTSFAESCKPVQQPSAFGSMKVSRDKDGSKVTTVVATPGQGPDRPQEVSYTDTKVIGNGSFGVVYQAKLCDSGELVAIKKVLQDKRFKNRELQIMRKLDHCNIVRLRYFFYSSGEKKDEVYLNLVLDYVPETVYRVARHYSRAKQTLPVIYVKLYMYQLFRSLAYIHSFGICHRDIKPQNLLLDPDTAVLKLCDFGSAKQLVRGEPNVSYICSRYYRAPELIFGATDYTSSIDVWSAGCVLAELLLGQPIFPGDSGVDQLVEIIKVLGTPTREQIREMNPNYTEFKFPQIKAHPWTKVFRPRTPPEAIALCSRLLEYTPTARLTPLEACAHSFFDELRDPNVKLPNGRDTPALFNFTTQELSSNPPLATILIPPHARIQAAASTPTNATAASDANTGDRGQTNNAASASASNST
row,pIC50,SMILES
1,7.05,NC(=O)c1ccc(-c2ccnc(NC(=O)C3CC3)c2)cn1
2,7.96,O=C1NCc2cc(-c3ccnc(NC(=O)C4CC4)c3)ccc21
3,8.96,COc1nc(-c2ccnc(NC(=O)C3CC3)c2)sc1C(N)=O
4,8.36,CC(C)Oc1cc(-c2ccnc(NC(=O)C3CC3)c2)ncc1C(N)=O
5,7.43,Cc1nc(-c2ccnc(NC(=O)C3CC3)c2)sc1C(N)=O
6,6.21,O=C(Nc1cc(-c2ccc3ccccc3c2)ccn1)C1CC1
7,8.17,NC(=O)c1cnc(-c2ccnc(NC(=O)C3CC3)c2)cc1OCC(F)(F)F
8,6.14,O=C1CCCc2cc(-c3ccnc(NC(=O)C4CC4)c3)ccc2N1
9,6.62,O=C(Nc1cc(-c2ccc3cccnc3c2)ccn1)C1CC1
10,7.62,Cn1nc(C(N)=O)cc1-c1ccnc(NC(=O)C2CC2)c1
11,9.35,CC(C)Oc1nc(-c2ccnc(NC(=O)C3CC3)c2)sc1C(N)=O
12,9.43,NC(=O)c1sc(-c2ccnc(NC(=O)C3CC3)c2)nc1OC1CCC1
13,8.12,O=C(Nc1cc(-c2ccc3ncccc3c2)ccn1)C1CC1
14,8.33,O=C1NCCOc2cc(-c3ccnc(NC(=O)C4CC4)c3)ccc21
15,7.52,NC(=O)c1cnc(-c2ccnc(NC(=O)C3CC3)c2)cn1
16,8.62,O=C1NCCCc2cc(-c3ccnc(NC(=O)C4CC4)c3)ccc21
17,7.89,NC(=O)c1cnc(-c2ccnc(NC(=O)C3CC3)c2)s1
18,7.52,COc1sc(-c2ccnc(NC(=O)C3CC3)c2)nc1C(N)=O
19,6.85,NC(=O)c1ccc(-c2ccnc(NC(=O)C3CC3)c2)nn1
20,8.15,COc1cc(-c2ccnc(NC(=O)C3CC3)c2)cnc1C(N)=O
21,8.62,O=C1NCCc2cc(-c3ccnc(NC(=O)C4CC4)c3)ccc21
22,9.54,NC(=O)c1sc(-c2ccnc(NC(=O)C3CC3)c2)nc1OCC1CC1
23,8.23,COc1nc(-c2ccnc(NC(=O)C3CC3)c2)ncc1C(N)=O
24,7.13,O=C(Nc1cc(-c2ccc3ccncc3c2)ccn1)C1CC1
25,9.08,CC(C)Oc1nc(-c2ccnc(NC(=O)C3CC3)c2)ncc1C(N)=O
26,7.66,COc1cc(-c2ccnc(NC(=O)C3CC3)c2)ncc1C(N)=O

# Tested on: Mus musculus
# Assay: Reduction in pTau396 level in LaFerla 3xTg-C57BL6 mouse at 30 mg/kg, po by ELISA
# Assay type: functional, organism-based
# Set-up: dose 30 mg/kg
# Conditions: not given
row,SMILES,inhibition
1,COc1nc(-c2ccnc(NC(=O)C3CC3)c2)sc1C(N)=O,Active
2,O=C1NCCc2cc(-c3ccnc(NC(=O)C4CC4)c3)ccc21,Active

# Tested on: not listed separately
# Assay: Ratio of brain to plasma in LaFerla 3xTg-C57BL6 mouse at 30 mg/kg, po
# Assay type: ADME, organism-based
# Set-up: dose 30 mg/kg, route oral
# Conditions: brain and plasma, read-out: BPR
row,Kp,SMILES
1,0.26,COc1nc(-c2ccnc(NC(=O)C3CC3)c2)sc1C(N)=O

# Species: Homo sapiens
# Assay: Selectivity ratio for GSK3beta (unknown origin) to CK2A2 (unknown origin)
# Conditions: not given
row,Ratio,SMILES
1,10,COc1nc(-c2ccnc(NC(=O)C3CC3)c2)sc1C(N)=O
2,> 67,COc1sc(-c2ccnc(NC(=O)C3CC3)c2)nc1C(N)=O
